Earlier results, collected in patent US5211943A, “Pharmaceutical preparation for administration by percutaneous absorption and a method for their manufacture” (Chugai Seiyaku Kabushili Kaisha, priority 1986, dated 1993).

Tests used:
[1] = oral; rapid increase of blood level
[2] = system: coronary vessels; conditions: Japanese Patent Publication 58-17463
[3] = high temperature or high humidity, or in solution; Iyakuhin Kenkyu vol. 14, 1983

stability [3]: relatively unstable
Structure (SMILES): O=C(NCCO[N+](=O)[O-])c1cccnc1 [Nicorandil, N-(2-hydroxyethyl)nicotinamide nitrate]
side effects when given orally [1]: orthostatic hypotension and headache | effect on coronary vessels, coronary veins and heart [2]: acts to dilate the coronary vessels and to inhibit contractions of the coronary veins, without much effect on the blood flow through the heart or on heart function
